Experimental data as given in ChEMBL document CHEMBL5042535, “Structure-Based Design and Synthesis of N-Substituted 3-Amino-β-Carboline Derivatives as Potent αβ-Tubulin Degradation Agents” (J Med Chem, 2022).

Tests used:
Assay type in all cases: functional, cell-based
[1] = system: A2780S; assay: Antiproliferative activity against human A2780S cells assessed as reduction in cell viability measured after 24 hrs by MTT assay
[2] = system: NCI-H460; assay: Antiproliferative activity against human NCI-H460 cells assessed as reduction in cell viability measured after 24 hrs by MTT assay; settings: NCI-H460, 24 h
[3] = system: HeLa; assay: Antiproliferative activity against human HeLa cells assessed as reduction in cell viability measured after 24 hrs by MTT assay
[4] = system: MCF7; assay: Antiproliferative activity against human MCF7 cells assessed as reduction in cell viability measured after 24 hrs by MTT assay; settings: MCF7, 24 h
[5] = system: Raji; assay: Antiproliferative activity against human Raji cells assessed as reduction in cell viability measured after 24 hrs by MTT assay

Compound	IC50 [1] [nM]	IC50 [2] [nM]	IC50 [3] [nM]	IC50 [4] [nM]	IC50 [5] [nM]
CC(C)COc1cccc(CNc2cc3c(cn2)[nH]c2ccccc23)c1	> 500	> 500	> 500	> 500	> 500
CCCNc1cc2c(cn1)[nH]c1ccccc12	> 500	> 500	> 500	> 500	> 500

Continued, values first:

IC50 [1] [nM]	IC50 [2] [nM]	IC50 [3] [nM]	IC50 [4] [nM]	IC50 [5] [nM]	Compound
> 500	> 500	> 500	> 500	> 500	c1ccc2c(CNc3cc4c(cn3)[nH]c3ccccc34)cccc2c1
264	> 500	266	432	383	COc1ccc(Oc2cccc(CNc3cc4c(cn3)[nH]c3ccccc34)c2)cc1OC
> 500	> 500	> 500	> 500	> 500	COCCOc1cccc(CNc2cc3c(cn2)[nH]c2ccccc23)c1
> 500	> 500	> 500	> 500	> 500	c1cc(CNc2cc3c(cn2)[nH]c2ccccc23)cc(OC2CCC2)c1
